Laboratory results reported in patent publication US4684664A, “Derivatives of β-(4-isocyano-1,2,3,4-diepoxycyclopentyl) acrylic acid” (Kureha Kagaku Kogyo Kabushiki Kaisha, priority 1984, dated 1987).
Converted amounts (≈) assume the structure as drawn.

Assays:
Assay type in all cases: cell-based
[1] = system: Staphylococcus aureus FDA 209PJc-1; assay: Antibacterial activity, agar-dilution MIC, organism No. 1; details: Staphylococcus aureus, FDA209PJC1; Organism No. 1, bouillon-agar; read-out: Minimum Inhibitory Concentration
Text: (§1) Agar-dilution method was used for determination of the antibacterial activity and antifungal activity while using bouillon-agar culture medium, and the minimum inhibitory concentration of the specimen was expressed by μg/ml of the culture medium.

[2] = system: Staphylococcus aureus Terajima; assay: Antibacterial activity, agar-dilution MIC, organism No. 2; details: Staphylococcus aureus; Organism No. 2, bouillon-agar; read-out: Minimum Inhibitory Concentration
Text: as §1

[3] = system: Staphylococcus aureus MS 353; assay: Antibacterial activity, agar-dilution MIC, organism No. 3; details: Staphylococcus aureus, MS353; Organism No. 3, bouillon-agar; read-out: Minimum Inhibitory Concentration
Text: as §1

[4] = system: Streptococcus pyogenes Cook; assay: Antibacterial activity, agar-dilution MIC, organism No. 4; details: Streptococcus pyogenes; Organism No. 4, bouillon-agar; read-out: Minimum Inhibitory Concentration
Text: as §1

[5] = system: Escherichia coli NIHJ-JC-2; assay: Antibacterial activity, agar-dilution MIC, organism No. 5; details: Escherichia coli, NIHJJC2; Organism No. 5, bouillon-agar; read-out: Minimum Inhibitory Concentration
Text: as §1

[6] = system: Escherichia coli K12 C600 IAM 1264; assay: Antibacterial activity, agar-dilution MIC, organism No. 6; details: Escherichia coli, IAM1264; Organism No. 6, bouillon-agar; read-out: Minimum Inhibitory Concentration
Text: as §1

[7] = system: Klebsiella pneumoniae PCI-602; assay: Antibacterial activity, agar-dilution MIC, organism No. 7; details: Klebsiella pneumoniae, PCI602; Organism No. 7, bouillon-agar; read-out: Minimum Inhibitory Concentration
Text: as §1

[8] = system: Salmonella typhimurium IID 971; assay: Antibacterial activity, agar-dilution MIC, organism No. 8; details: Salmonella enterica; Organism No. 8, bouillon-agar; read-out: Minimum Inhibitory Concentration
Text: as §1

Salmonella typhi 901 = assay: Antibacterial activity, agar-dilution MIC, organism No. 9; details: Salmonella enterica, TYPHI, read-out: Minimum Inhibitory Concentration
Text: as §1

[9] = system: Salmonella paratyphi-A 1015; assay: Antibacterial activity, agar-dilution MIC, organism No. 10; details: Salmonella enterica, PARATYPHI, read-out: Minimum Inhibitory Concentration
Text: as §1

[10] = system: Salmonella shottmuelleri 8006; assay: Antibacterial activity, agar-dilution MIC, organism No. 11; details: Salmonella, 8006; Organism No. 11, bouillon-agar; read-out: Minimum Inhibitory Concentration
Text: as §1

[11] = system: Salmonella enteritidis G 14; assay: Antibacterial activity, agar-dilution MIC, organism No. 12; details: Salmonella enterica, ENTERITIDIS; Organism No. 12, bouillon-agar; read-out: Minimum Inhibitory Concentration
Text: as §1

[12] = system: Bacillus subtilis ATCC 6633; assay: Antibacterial activity, agar-dilution MIC, organism No. 14; details: Bacillus subtilis, ATCC6633; Organism No. 14, bouillon-agar; read-out: Minimum Inhibitory Concentration
Text: as §1

[13] = system: Pseudomonas aeruginosa IFO 3445; assay: Antibacterial activity, agar-dilution MIC, organism No. 15; details: Pseudomonas aeruginosa, IFO3445; Organism No. 15, bouillon-agar; read-out: Minimum Inhibitory Concentration
Text: as §1

[14] = system: Pseudomonas aeruginosa NCTC 10490; assay: Antibacterial activity, agar-dilution MIC, organism No. 16; details: Pseudomonas aeruginosa, NCTC10490; Organism No. 16, bouillon-agar; read-out: Minimum Inhibitory Concentration
Text: as §1

[15] = system: Pseudomonas aeruginosa PAO 1; assay: Antibacterial activity, agar-dilution MIC, organism No. 17; details: Pseudomonas aeruginosa, PAO1; Organism No. 17, bouillon-agar; read-out: Minimum Inhibitory Concentration
Text: as §1

[16] = system: Proteus morganii IFO 3848; assay: Antibacterial activity, agar-dilution MIC, organism No. 18; details: Morganella morganii, IFO3848; Organism No. 18, bouillon-agar; read-out: Minimum Inhibitory Concentration
Text: as §1

[17] = system: Proteus mirabilis IFO 3849; assay: Antibacterial activity, agar-dilution MIC, organism No. 19; details: Proteus mirabilis, IFO3849; Organism No. 19, bouillon-agar; read-out: Minimum Inhibitory Concentration
Text: as §1

Proteus vulgaris OX-19 = assay: Antibacterial activity, agar-dilution MIC, organism No. 20; details: Proteus vulgaris, OX19; Organism No. 20, bouillon-agar; read-out: Minimum Inhibitory Concentration
Text: as §1

Proteus vulgaris HX-19 = assay: Antibacterial activity, agar-dilution MIC, organism No. 21; details: Proteus vulgaris, HX19; Organism No. 21, bouillon-agar; read-out: Minimum Inhibitory Concentration
Text: as §1

[18] = system: Proteus rettgeri IFO 3850; assay: Antibacterial activity, agar-dilution MIC, organism No. 22; details: Providencia rettgeri, IFO3850; Organism No. 22, bouillon-agar; read-out: Minimum Inhibitory Concentration
Text: as §1

[19] = system: Enterobacter aerogenes ATCC 13048; assay: Antibacterial activity, agar-dilution MIC, organism No. 23; details: Klebsiella aerogenes, ATCC13048; Organism No. 23, bouillon-agar; read-out: Minimum Inhibitory Concentration
Text: as §1

Enterobacter cloacae 963 = assay: Antibacterial activity, agar-dilution MIC, organism No. 24; details: Enterobacter cloacae, 963; Organism No. 24, bouillon-agar; read-out: Minimum Inhibitory Concentration
Text: as §1

[20] = system: Micrococcus luteus ATCC 9341; assay: Antibacterial activity, agar-dilution MIC, organism No. 25; details: Micrococcus luteus, ATCC9341; Organism No. 25, bouillon-agar; read-out: Minimum Inhibitory Concentration
Text: as §1

[21] = system: Streptococcus pyogenes IFO 3340; assay: Antibacterial activity, agar-dilution MIC, organism No. 26; details: Streptococcus pyogenes, IFO3340; Organism No. 26, bouillon-agar; read-out: Minimum Inhibitory Concentration
Text: as §1

[22] = system: Mycoplasma pneumoniae IID817; assay: Antimycoplasmal activity, MIC by phenol red colour change, organism No. 28; details: Mycoplasma, IID817; Organism No. 28, PPLO broth + 1% glucose, 37° C.; read-out: Minimum Inhibitory Concentration (MIC)
Protocol: Mycoplasma pneumoniae IID817 was used as the test microorganism in a culture medium prepared by adding 1% of glucose to "PPLO broth (manufactured by Difco Co.) liquid culture medium" at 37° C. with phenol red as an indicator, thereby culturing the test microorganism.

[23] = system: Candida albicans IAM 4905; assay: Antifungal activity, agar-dilution MIC, organism No. 29; details: Candida albicans, IAM4905; Organism No. 29, bouillon-agar; read-out: Minimum Inhibitory Concentration
Text: as §1

[24] = system: Aspergillus niger IFO 6342; assay: Antifungal activity, agar-dilution MIC, organism No. 30; details: Aspergillus niger, IFO6342; Organism No. 30, bouillon-agar; read-out: Minimum Inhibitory Concentration
Text: as §1

[25] = system: Streptococcus faecium IFO 3826; assay: Antibacterial activity, agar-dilution MIC, organism No. 27; details: Enterococcus faecium, IFO3826; Organism No. 27, bouillon-agar; read-out: Minimum Inhibitory Concentration
Text: as §1

Compound | MIC [1] [µg/mL] | MIC [2] [µg/mL] | MIC [3] [µg/mL] | MIC [4] [µg/mL] | MIC [5] [µg/mL] | MIC [6] [µg/mL] | MIC [7] [µg/mL] | MIC [8] [µg/mL] | MIC (Salmonella typhi 901) [µg/mL] | MIC [9] [µg/mL] | MIC [10] [µg/mL] | MIC [11] [µg/mL] | MIC [12] [µg/mL] | MIC [13] [µg/mL] | MIC [14] [µg/mL] | MIC [15] [µg/mL] | MIC [16] [µg/mL] | MIC [17] [µg/mL] | MIC (Proteus vulgaris OX-19) [µg/mL] | MIC (Proteus vulgaris HX-19) [µg/mL] | further results
[C-]#[N+]C12CC3(/C=C/C(=O)Nc4ccccc4)OC3C1O2 (stereo not shown) [Compound No. 36] | 0.39 (≈ 1.45 µM) | 0.78 (≈ 2.91 µM) | 0.39 (≈ 1.45 µM) | 1.56 (≈ 5.81 µM) | 12.5 (≈ 46.6 µM) | 6.25 (≈ 23.3 µM) | 0.39 (≈ 1.45 µM) | 12.5 (≈ 46.6 µM) | 3.13 (≈ 11.7 µM) | 0.39 (≈ 1.45 µM) | < 0.05 | 0.78 (≈ 2.91 µM) | 12.5 (≈ 46.6 µM) | > 200 | > 200 | > 200 | 0.39 (≈ 1.45 µM) | 12.5 (≈ 46.6 µM) | 0.78 (≈ 2.91 µM) | < 0.05 | MIC [18]: 3.13 µg/mL (≈ 11.7 µM); MIC [19]: > 200 µg/mL; MIC (Enterobacter cloacae 963): 200 µg/mL (≈ 746 µM); MIC [20]: < 0.05 µg/mL; MIC [21]: 0.2 µg/mL (≈ 0.746 µM); MIC [22]: < 0.2 µg/mL; MIC [23]: 0.39 µg/mL (≈ 1.45 µM); MIC [24]: 1.56 µg/mL (≈ 5.81 µM)
[C-]#[N+]C12CC3(/C=C/C(=O)N4CCN(C)CC4)OC3C1O2 (stereo not shown) [compound 23] | 200 (≈ 726 µM) | > 200 | 200 (≈ 726 µM) | 50 (≈ 182 µM) | 50 (≈ 182 µM) | 50 (≈ 182 µM) | 200 (≈ 726 µM) | 50 (≈ 182 µM) | 12.5 (≈ 45.4 µM) | 25 (≈ 90.8 µM) | 50 (≈ 182 µM) | 25 (≈ 90.8 µM) | 200 (≈ 726 µM) | > 200 | > 200 | > 200 | 12.5 (≈ 45.4 µM) | > 200 | 25 (≈ 90.8 µM) | 25 (≈ 90.8 µM) | MIC [18]: > 200 µg/mL; MIC [19]: > 200 µg/mL; MIC (Enterobacter cloacae 963): 200 µg/mL (≈ 726 µM); MIC [20]: < 0.05 µg/mL; MIC [21]: 50 µg/mL (≈ 182 µM); MIC [25]: 100 µg/mL (≈ 363 µM); MIC [23]: 1.56 µg/mL (≈ 5.67 µM); MIC [24]: 3.13 µg/mL (≈ 11.4 µM)
[C-]#[N+]C12CC3(/C=C/C(=O)NC4C(=O)N5C(C(=O)OCC(=O)c6ccc(Br)cc6)=C(C)CSC45)OC3C1O2 (stereo not shown) [compound 34] | > 100 | > 100 | > 100 | > 100 | > 100 | > 100 | > 100 | > 100 | > 100 | > 100 | > 100 | > 100 | > 100 | > 100 | > 100 | > 100 | > 100 | > 100 | > 100 | 100 (≈ 171 µM) | MIC [18]: > 100 µg/mL; MIC [19]: > 100 µg/mL; MIC (Enterobacter cloacae 963): > 100 µg/mL; MIC [21]: > 100 µg/mL; MIC [25]: > 100 µg/mL; MIC [22]: > 100 µg/mL; MIC [23]: > 100 µg/mL; MIC [24]: > 100 µg/mL
[C-]#[N+]C12CC3(/C=C/C(=O)N4CCC[C@H]4C(=O)OCc4ccccc4)OC3C1O2 (stereo partly shown) [compound 32] | 200 (≈ 526 µM) | 200 (≈ 526 µM) | 200 (≈ 526 µM) | > 200 | > 200 | > 200 | > 200 | > 200 | > 200 | > 200 | > 200 | > 200 | > 200 | > 200 | > 200 | > 200 | > 200 | > 200 | > 200 | > 200 | MIC [18]: > 200 µg/mL; MIC (Enterobacter cloacae 963): > 200 µg/mL; MIC [20]: 1.56 µg/mL (≈ 4.1 µM); MIC [21]: 200 µg/mL (≈ 526 µM); MIC [25]: 200 µg/mL (≈ 526 µM); MIC [22]: > 100 µg/mL; MIC [23]: > 100 µg/mL; MIC [24]: > 100 µg/mL
